Data: patent US12246010B2, “Formulations of tegavivint and related compounds” (Iterion Therapeutics, Inc., priority 2018, dated 2025)
Values after ≈ are worked out from the molar mass of the structure shown. Values joined by “and” are separate entries in the source; they are usually repeats but may differ in a detail not shown here. Equal entries are not always repeated. Where two headings read alike, the source gives them in different places.

How the values were obtained:
[1] = Tegavivint solubility in water and organic solvents; type: physicochemical
Method: In organic solvents, tegavivint has solubilities as shown: DMSO (334 μg/mL), ethanol (260 μg/mL), methanol (299 μg/mL), acetone (1 mcg/mL), dichloromethane:ethanol (1:4) (1 mg/mL).

[2] = Dose-escalating intravenous infusion study in male Beagle dogs (plasma PK); type: in vivo; details: dog
Method: • Study Animals: Four male non-naïve Beagle dogs were released by Xenometrics for study use on Apr. 20, 2017. The animals were fed Harlan Teklad® Global 25% Protein Certified Dog Diet 2025C ad libitum throughout the study (except for brief periods during in-life procedures when it was • Dosing: Animals were dosed via intravenous (IV) infusion (via jugular vein) for 4 hours (h) [±5 minutes (min)].
[…] All blood samples were collected within 10 minutes of the target time and processed per protocol. Bioanalytical results indicated tegavivint was present in all plasma samples.
The pharmacokinetic parameters were determined for BC-2059 following the final 15 mg/kg infusion of the drug over 4 h.

[3] = Lung concentration after nebulized whole body exposure of mice; type: in vivo, bcat-Ex3 mice; details: for concentration at 5 day: male, bcat-Ex3, mouse, lung, inhaled
Method: The purpose of this experiment was to test nebulized delivery of nanosuspensions.
Tegavivint particles suspended in Poloxamer 188/sorbitol at a concentration of 25 mg/mL were used.
These formulations were applied to the mice in the form of aerosols, through the method of whole body exposure. The mice were placed inside a plastic box. This box was sealed and connected by one of its sides to the outlet of the nebulizer device, and on the other side to a system of closed water. The whole procedure was carried out inside the fume hood of the animal room.
For the first experiment, the nebulizer kit of SATER LABS was used. This device uses the jet system. The device was primed with 5 ml of the drug, i.e. 125 mg of tegavivint (BC2059), for each group of 5 mice, and then the device was connected to the power source for nebulization. The energy was supplied by a DeVilbiss compressor model 646, which allows 5-7 pounds of pressure, and a flow of 6-8 liters per minute. For the second experiment, the device used was the Altera, ultrasonic nebulizer.
For the two experiments, 10 male bcat-Ex3 mice were used for each set. These mice were separated into 2 groups of 5 mice each. The first group received the drug daily, for 5 consecutive days. The second group received the drug only once (the fifth day). On day 5 all mice were sacrificed, lung harvested, and samples were stored at −30 degrees, in two labeled nylon bags, each containing the 5 samples from each group.

[4] = Aerosol concentration of nebulized formulations in rodent nose-only exposure chamber; type: physicochemical
Source text: A series of BC-2059 (tegavivint) formulations were aerosolized using vibrating mesh and compressed air nebulizers to determine the most efficient method of aerosol generation. The aerosols were characterized for aerosol concentration and particle size distribution in a rodent nose-only exposure chamber. Each formulation had different variables adjusted to assess impact on aerosol performance. These included particle size reduction of the API, excipient profile and nebulizer utilized.
Test article BC-2059 was suspended in 0.1% Tween 80 in purified water at a concentration of 15 mg/mL. The suspension was sonicated using a Covaris S220x Ultrasonicator (Covaris, Boston MA) and then mixed on a vortex for one minute. Sonication and mixing by vortex was repeated a total of 15 times.
The remaining bulk BC-2059 powder was ground in a Planetary Ball Mill (Retsch, Germany) for 10 minutes at 150 RPMs utilizing a 12 mL ball mill jar and three metal balls. The milled BC-2059 powder was suspended in 0.1% Tween 80 in purified water at a concentration of 15 mg/mL. The suspension was sonicated using the procedure outlined above.
The remaining bulk BC-2059 powder was ground in a Planetary Ball Mill (Retsch, Germany) for 60 minutes at 300 RPMs utilizing a 12 mL ball mill jar and three metal balls. The milled BC-2059 powder was suspended in 0.1% Tween 80 in purified water and 10% PEG 400 in purified water at a concentration of 15 mg/mL. The suspensions were sonicated using the procedure outlined above. An additional 15 mg/mL BC-2059 suspension using 10% ethanol in purified water was prepared. The suspension was sonicated for 10 minutes using a VWR sonicator (VWR, Radnor PA) and mixed for 4 minutes using a vortex mixer. […]
The aerosols were generated from formulations prepared with a series of surfactants with 4 separate nebulizers (Aeroneb Solo (Aerogen, Ireland), Pari LC Plus (Pari Respiratory Equipment Inc. Midlothian VA), Hospitak Up Mist, Hospitak Inc. Farmdale, NY), and Hudson Micro-Mist (Teleflex Inc. Research Triangle Park, NC) and transitioned into a 2 tier flow-past rodent exposure system.
The total concentration of aerosol in the exposure atmosphere was determined by the analysis of filter samples (GF/A 47-mm filters). Filter samples were collected at a nominal flow rate of 0.3 L/min. Filter samples collected throughout the study were analyzed gravimetrically to determine the total aerosol concentration, and submitted for HPLC analysis.
Filters with test article were extracted in 1:1 acetonitrile: methanol and analyzed by the HPLC-UV assay.

[5] = 15 mg/kg 4 h IV infusion, individual animals, 15 mg/kg
[6] = mouse lung, Nebulizer (ultrasonic eRapid, Altera), 5 daily doses on Days 1-5
[7] = Covaris and Ball Mill (60 min), 0.1% Tween 80, 15.06 mg/mL, Hospitak
[8] = Covaris and Ball Mill (60 min), 0.1% Tween 80, 15.08 mg/mL, Hudson MicroMist
[9] = Covaris and Ball Mill (60 min), 10% PEG-400, 15.08 mg/mL, Hudson MicroMist
[10] = Covaris, 0.1% Tween 80, 15.04 mg/mL, Aeroneb Solo
[11] = Sonicator and Ball Mill (60 min), 10% Ethanol, 15.00 mg/mL, Hudson MicroMist

Compound: C[C@@H]1C[C@H](C)CN(S(=O)(=O)c2ccc3c(c2)C(=NO)c2cc(S(=O)(=O)N4C[C@H](C)C[C@H](C)C4)ccc2C3=NO)C1 [BC2059, tegavivint]
- solubility ([1]; DMSO, organic solvent or mixture, read-out: solubility in DMSO): 334 µg/mL (≈ 567 µM)
- solubility ([1]; acetone, organic solvent or mixture, read-out: solubility in acetone): 1 µg/mL (≈ 1.7 µM)
- solubility ([1]; dichloromethane:ethanol (1:4), organic solvent or mixture, read-out: solubility in dichloromethane:ethanol (1:4)): 1000 µg/mL (≈ 1700 µM)
- solubility ([1]; ethanol, organic solvent or mixture, read-out: solubility in ethanol): 260 µg/mL (≈ 442 µM)
- solubility ([1]; methanol, organic solvent or mixture, read-out: solubility in methanol): 299 µg/mL (≈ 508 µM)
- solubility ([1]; water, aqueous buffer, across the pH range of 2 to 10, read-out: solubility in water): < 0.25 µg/mL
- Plasma BC-2059, 4 h [2, 5]: 1310 ng/mL and 1320 ng/mL and 1150 ng/mL
- Plasma BC-2059, 12 h [2, 5]: 916.0 ng/mL and 1050 ng/mL and 777 ng/mL
- Plasma BC-2059, 24 h [2, 5]: 1120 ng/mL (2×) and 1070 ng/mL
- Plasma BC-2059, 36 h [2, 5]: 834 ng/mL and 931 ng/mL and 708 ng/mL
- Plasma BC-2059, 48 h [2, 5]: 663 ng/mL and 656 ng/mL and 647 ng/mL
- Plasma BC-2059, 72 h [2, 5]: 511 ng/mL and 480 ng/mL and 524 ng/mL
- Plasma BC-2059, 96 h [2, 5]: 360 ng/mL and 310 ng/mL and 364 ng/mL
- Plasma BC-2059, 120 h [2, 5]: 321 ng/mL and 262 ng/mL and 281 ng/mL
- Plasma BC-2059, Predose ([2]; prior to Dose 6 (15 mg/kg 4 h IV infusion), individual animals, 15 mg/kg): 257 ng/mL and 404 ng/mL and 309 ng/mL and 284 ng/mL
- concentration at 4 h ([2]; male, Beagle, plasma, iv, 15 mg/kg, 15 mg/kg 4 h IV infusion, individual animals, read-out: Plasma BC-2059, 4 h): 1600 ng/mL
- concentration at 12 h ([2]; male, Beagle, plasma, iv, 15 mg/kg, 15 mg/kg 4 h IV infusion, individual animals, read-out: Plasma BC-2059, 12 h): 784 ng/mL
- concentration at 24 h ([2]; male, Beagle, plasma, iv, 15 mg/kg, 15 mg/kg 4 h IV infusion, individual animals, read-out: Plasma BC-2059, 24 h): 723 ng/mL
- concentration at 36 h ([2]; male, Beagle, plasma, iv, 15 mg/kg, 15 mg/kg 4 h IV infusion, individual animals, read-out: Plasma BC-2059, 36 h): 674 ng/mL
- concentration at 48 h ([2]; male, Beagle, plasma, iv, 15 mg/kg, 15 mg/kg 4 h IV infusion, individual animals, read-out: Plasma BC-2059, 48 h): 664 ng/mL
- concentration at 72 h ([2]; male, Beagle, plasma, iv, 15 mg/kg, 15 mg/kg 4 h IV infusion, individual animals, read-out: Plasma BC-2059, 72 h): 393 ng/mL
- concentration at 96 h ([2]; male, Beagle, plasma, iv, 15 mg/kg, 15 mg/kg 4 h IV infusion, individual animals, read-out: Plasma BC-2059, 96 h): 277 ng/mL
- concentration at 120 h ([2]; male, Beagle, plasma, iv, 15 mg/kg, 15 mg/kg 4 h IV infusion, individual animals, read-out: Plasma BC-2059, 120 h): 228 ng/mL
- Cmax ([2]; male, Beagle, plasma, 15 mg/kg IV over 4 h, mean, n = 4 males): 1340 ± 187 ng/mL
- AUC(0-t) ([2]; male, Beagle, plasma, 15 mg/kg IV over 4 h, mean, n = 4 males, read-out: AUC0-120 h): 73500 ng·h/mL
- half-life ([2]; male, Beagle, plasma, 15 mg/kg IV over 4 h, mean, n = 4 males, read-out: T½ (converted)): 53 h
- concentration at 5 day ([3]; Nebulizer (ultrasonic eRapid, Altera), 5 daily doses on Days 1-5, read-out: Lung Concentration (ng/g)): 19100 ng/g
- concentration at 5 day ([3]; Nebulizer (ultrasonic eRapid, Altera), 5 daily doses on Days 1-5, read-out: Lung Concentration (ng/mL)): 4770 ng/mL
- lung tissue concentration in the previous testing (assayed concentration) ([3]; mouse lung, previous nebulization testing): ~0.02 mg/g
- Lung Concentration (ng/g) [3, 6]: 17200 ng/g and 18800 ng/g and 12200 ng/g and 22900 ng/g
- Lung Concentration (ng/mL) [3, 6]: 4290 ng/mL and 4690 ng/mL and 3040 ng/mL and 5730 ng/mL
- Total Aerosol Conc. ([4]; Covaris and Ball Mill (10 min), 0.1% Tween 80, 15.58 mg/mL, Pari LC Plus): 0.123 mg/L
- BC-2059 Aerosol Conc. [4, 7]: 66 µg/L
- Total Aerosol Conc. [4, 7]: 0.229 mg/L
- BC-2059 Aerosol Conc. [4, 8]: 86 µg/L
- Total Aerosol Conc. [4, 8]: 0.093 mg/L
- BC-2059 Aerosol Conc. [4, 9]: 7.2 µg/L
- Total Aerosol Conc. [4, 9]: 2.58 mg/L
- BC-2059 Aerosol Conc. [4, 10]: 1.3 µg/L
- Total Aerosol Conc. [4, 10]: 0.247 mg/L
- BC-2059 Aerosol Conc. [4, 11]: 20.2 µg/L
- Total Aerosol Conc. [4, 11]: 0.027 mg/L
